The values that follow come from patent US6384041B1, “Bicyclic sPLA2 inhibitors” (Eli Lilly and Company, priority 1998, dated 2002).

pIC50: −log10 of the molar value.

In the first assay the target is T1, recombinant human secreted phospholipase A2 (Homo sapiens, UniProt P14555).
T1 sequence (P14555 21-144): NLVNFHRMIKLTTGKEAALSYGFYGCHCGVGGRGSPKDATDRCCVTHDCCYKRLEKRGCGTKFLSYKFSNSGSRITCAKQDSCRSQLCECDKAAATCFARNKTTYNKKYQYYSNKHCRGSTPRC
Kind of assay: Human Recombinant hnp-sPLA2 Chromogenic Assay. In kind it is biochemical.
Details: not given
An excerpt:
The following chromogenic assay procedure was used to identify and evaluate inhibitors of recombinant human secreted phospholipase A2.The assay described herein has been adapted for high volume screening using 96 well microtiter plates. A general description of this assay method is found in the article, “Analysis of Human Synovial Fluid Phospholipase A2 on Short Chain Phosphatidylcholine-Mixed Micelles: Development of a Spectrophotometric Assay Suitable for a Microtiterplate Reader”, by Laure J. Reynolds, Lori L. Hughes, and Edward A Dennis, Analytical Biochemistry, 204, pp. 190-197, 1992 (the disclosure of which is incorporated herein by reference): Reagents:
Bovine Serum Albumin (fatty acid free) (1 g/L)
(Sigma A-7030, product of Sigma Chemical Co. St. Louis Mo., USA) […]
pH 7.5 (adjust with NaOH)
Adjust pH to 4.5 with acetic acid
DTNB—5,5′-dithiobis-2-nitrobenzoic acid
Racemic Diheptanoyl Thio-PC racemic 1,2-bis(heptanoylthio)-1,2-dideoxy-sn-glycero-3-phosphorylcholine TRITON X-100™ prepare at 6.249 mg/ml in reaction buffer to equal […].
A measured volume of racemic dipheptanoyl thio PC supplied in chloroform at a concentration of 100 mg/ml is taken to dryness and redissolved in 10 millimolar TRITON X-100™ nonionic detergent aqueous solution.
Reaction Buffer is added to the solution, then DTNB to give the Reaction Mixture.
The reaction mixture thus obtained contains lmM diheptanoly thio-PC substrate, 0.29 mm Triton X-100™ detergent, and 0.12 mm DTMB in a buffered aqueous solution at pH 7.5.
1. Add 0.2 ml reaction mixture to all wells;
2. Add 10 ul test compound (or solvent blank) to appropriate wells, mix 20 seconds;
3. Add 50 nanograms of sPLA2 (10 microliters) to appropriate wells;
4. Incubate plate at 40° C. for 30 minutes;
5. Read absorbance of wells at 405 nanometers with an automatic plate reader.
All compounds were tested in triplicate. Typically, compounds were tested at a final concentration of 5 ug/ml. […] Lack of color development at 405 nanometers evidenced inhibition. Compounds initially found to be active were reassayed to confirm their activity and, if sufficiently active, IC50 values were determined. […] In all cases, % inhibition measured at 405 nanometers generated by enzyme reactions containing inhibitors relative to the uninhibited control reactions was determined. Each sample was titrated in triplicate and result values were averaged for plotting and calculation of IC50 values. IC50 were determined by plotting log concentration versus inhibition values in the range from 10-90% inhibition.
For `CCc1c(C(=O)C(N)=O)c2c(OCC(=O)O)nc(C)nc2n1Cc1ccccc1` [—H|—CH3|phenyl, [[2-methyl-5-(aminooxoacetyl)-6-ethyl-7-(phenylmethyl)-7H-pyrrolo[2,3-d]pyrimidin-4-yl]oxy]acetic Acid], the pIC50 was 7.06.

For `CCc1c(C(=O)C(N)=O)c2c(OCC(=O)O)ncnc2n1Cc1cccc(Cl)c1` [—H|—H|m-Cl-phenyl, [[5-(aminooxoacetyl)-6-ethyl-7-[(3-chlorophenyl)methyl]-7H-pyrrolo[2,3-d]pyrimidin-4-yl]oxy]acetic acid], the pIC50 was 7.04.

Take `CCc1c(C(=O)C(N)=O)c2c(OCC(=O)O)ncnc2n1Cc1cccc(F)c1` [—H|—H|m-F-phenyl, [[5-(aminooxoacetyl)-6-ethyl-7-[(3-fluorophenyl)methyl]-7H-pyrrolo[2,3-d]pyrimidin-4-yl]oxy]acetic acid]: the pIC50 was 7.01.

As to `CCc1c(C(=O)C(N)=O)c2c(OCC(=O)O)ncnc2n1Cc1ccccc1` [—H|—H|phenyl, [[5-(aminooxoacetyl)-6-ethyl-7-(phenylmethyl)-7H-pyrrolo[2,3-d]pyrimidin-4-yl]oxy]acetic acid], the pIC50 is 7.32.

Turning to `CCc1c(C(=O)C(N)=O)c2c(OCC(=O)O)nc(OC)nc2n1Cc1ccccc1` [—H|—O—CH3|phenyl, [[2-methoxy-5-(aminooxoacetyl)-6-ethyl-7-(phenylmethyl)-7H-pyrrolo[2,3-d]pyrimidin-4-yl]oxy]acetic acid], the pIC50 is 7.34.

In the case of `CCc1c(C(=O)C(N)=O)c2c(OCC(=O)O)nc(SC)nc2n1Cc1cccc(C(F)(F)F)c1` [—H|—S-methyl|m-CF3-phenyl, [[2-(methylthio)-5-(aminooxoacetyl)-6-ethyl-7-[[3-(trifluoromethyl)phenyl]methyl]-7H-pyrrolo[2,3-d]pyrimidin-4-yl]oxy]acetic acid], the pIC50 was 7.89.

Consider `CCc1c(C(=O)C(N)=O)c2c(OCC(=O)O)nc(SC)nc2n1Cc1cccc(Cl)c1` [—H|—S-methyl|m-Cl-phenyl, [[2-(methylthio)-5-(aminooxoacetyl)-6-ethyl-7-[(3-chlorophenyl)methyl]-7H-pyrrolo[2,3-d]pyrimidin-4-yl]oxy]acetic acid], for which the pIC50 was 7.72.

`CCc1c(C(=O)C(N)=O)c2c(OCC(=O)O)nc(SC)nc2n1Cc1cccc(F)c1` [—H|—S-methyl|m-F-phenyl, [[2-(methylthio)-5-(aminooxoacetyl)-6-ethyl-7-[(3-fluorophenyl)methyl]-7H-pyrrolo[2,3-d]pyrimidin-4-yl]oxy]acetic acid]: the pIC50 is 7.80.

On to `CCc1c(C(=O)C(N)=O)c2c(OCC(=O)O)nc(SC)nc2n1Cc1ccccc1-c1ccccc1` [—H|—S-methyl|o-phenyl-phenyl, [[2-(methylthio)-5-(aminooxoacetyl)-6-ethyl-7-([1,1′-biphenyl]-2-ylmethyl)-7H-pyrrolo[2,3-d]pyrimidin-4-yl]oxy]acetic acid], for which the pIC50 is 8.05.

Take `CCc1c(C(=O)C(N)=O)c2c(OCC(=O)O)nc(Sc3ccccc3)nc2n1Cc1ccccc1` [—H|—S-phenyl|phenyl, [[2-(phenylthio)-5-(aminooxoacetyl)-6-ethyl-7-(phenylmethyl)-7H-pyrrolo[2,3-d]pyrimidin-4-yl]oxy]acetic acid]: the pIC50 was 7.96.

In the case of `CCc1c(C(=O)C(N)=O)c2c(OCC(=O)O)nc(SC)nc2n1Cc1ccccc1` [—H|—SCH3|phenyl, [[2-(methylthio)-5-(aminooxoacetyl)-6-ethyl-7-(phenylmethyl)-7H-pyrrolo[2,3-d]pyrimidin-4-yl]oxy]acetic acid], the negative-log IC50 (pIC50) was 7.72.

The same assay, now with this note: chromogenic assay, diheptanoyl thio-PC substrate, pH 7.5, 40° C. for 30 minutes, absorbance at 405 nm; average of n = 3-4; read-out: IC50 (micro-molar) n = 3 − 4 (ave).
With `CCc1c(C(=O)C(N)=O)c2c(OCC(=O)OC)nc(C)nc2n1Cc1ccccc1` [—CH3|—CH3|phenyl, [[2-methyl-5-(aminooxoacetyl)-6-ethyl-7-(phenylmethyl)-7H-pyrrolo[2,3-d]pyrimidin-4-yl]oxy]acetic acid methyl ester], the pIC50 is 5.33.

Take `CCc1c(C(=O)C(N)=O)c2c(OCC(=O)OC)ncnc2n1Cc1ccccc1` [—CH3|—H|phenyl, [[5-(aminooxoacetyl)-6-ethyl-7-(phenylmethyl)-7H-pyrrolo[2,3-d]pyrimidin-4-yl]oxy]acetic acid methyl ester]: the pIC50 was 5.26.

For the compound `CCc1c(C(=O)C(N)=O)c2c(OCC(=O)O)ncnc2n1Cc1cccc(C(F)(F)F)c1` [—H|—H|m-CF3-phenyl, [[5-(aminooxoacetyl)-6-ethyl-7-[[3-(trifluoromethyl)phenyl]methyl]-7H-pyrrolo[2,3-d]pyrimidin-4-yl]oxy]acetic acid], the pIC50 was 6.91.

Take `CCc1c(C(=O)C(N)=O)c2c(OCC(=O)O)ncnc2n1Cc1ccccc1-c1ccccc1` [—H|—H|o-phenyl-phenyl, [[5-(aminooxoacetyl)-6-ethyl-7-([1,1′-biphenyl]-2-ylmethyl)-7H-pyrrolo[2,3-d]pyrimidin-4-yl]oxy]acetic acid]: the pIC50 is 6.94.

The term pIC50 denotes −log10 of the IC50, conventionally taken in molar units.
